Reference: EP0326331B1, “Substituted quinolines and cinnolines” (Dow AgroSciences LLC, priority 1988, dated 1989)

What was measured:
Assay type in all cases: in vivo
[1] = system: Botrytis cinerea (gray mold); assay: Test 1 greenhouse foliar spray screen, gray mold on grape berries; details: disease control rating, spray on grape berries, 400 ppm (+++ at 100 ppm)
[2] = system: Twospotted spider mites (Tetranychus urticae Koch); assay: Mite/insect screen, SM; details: for mortality at 200 ppm / mortality at 400 ppm: Tetranychus urticae, percent mortality, SAW, read-out: SM RESULTS %; for mortality at 200 ppm: SM & MA RATE 200 PPM; for mortality at 400 ppm: SM & MA RATE 400 PPM
Description: (§1) The compounds of Examples 1-295 were tested for miticidal and insecticidal activity in the following mite/insect screen.
(§2) Each test compound was formulated by dissolving the compound in acetone/alcohol (50:50) mixture containing 23 g of "TOXIMUL R" (sulfonate/nonionic emulsifier blend) and 13 g of "TOXIMUL S" (sulfonate/nonionic emulsifier blend) per liter. These mixtures were then diluted with water to give the indicated concentrations.
(§3) Other plants in the same treatment pot were left uninfested. The leaves were then sprayed with 5 ml of test solution using a DeVilbiss atomizing sprayer at 10 psi. Both surfaces of the leaves were covered until runoff, and then allowed to dry for one hour. Two uninfested leaves were then excised and placed into a Petri dish containing southern armyworm (Spodopetra eridania Cramer).
(§4) After standard exposure periods, percent mortality was evaluated. […]

[3] = system: corn rootworm; assay: Mite/insect screen, CRW; details: percent mortality, read-out: CRW RESULTS %; for mortality at 12 ppm: CRW RATE 12.00 PPM; for mortality at 24 ppm: CRW RATE 24.00 PPM
Description: as §1, §2, §4

[4] = system: melon aphids (Aphis gossypii Glover); assay: Mite/insect screen, MA; details: Aphis gossypii, percent mortality, SAW, read-out: MA RESULTS %; for mortality at 200 ppm: SM & MA RATE 200 PPM; for mortality at 400 ppm: SM & MA RATE 400 PPM
Description: as §1, §2, §3, §4

[5] = system: Pyricularia oryzae (rice blast); assay: whole plant or invertebrate; details: disease control rating, foliar spray on rice, 400 ppm (+++ at 100 ppm)
[6] = system: southern armyworm (Spodopetra eridania Cramer); assay: Mite/insect screen, SAW; details: Spodoptera eridania, percent mortality, SAW, read-out: SAW RESULTS %; for mortality at 200 ppm: SM & MA RATE 200 PPM; for mortality at 400 ppm: SM & MA RATE 400 PPM
Description: as §1, §2, §3, §4

[7] = system: Erysiphe graminis tritici (powdery mildew); assay: Test 1 greenhouse foliar spray screen, powdery mildew on wheat; details: disease control rating, foliar spray on wheat, 400 ppm (+++ at 100 ppm)
[8] = system: Pseudoperonospora cubensis (downy mildew); assay: Test 1 greenhouse foliar spray screen, downy mildew on squash; details: disease control rating, foliar spray on squash, 400 ppm (+++ at 100 ppm)
[9] = system: Puccinia recondita tritici (leaf rust); assay: Test 1 greenhouse foliar spray screen, leaf rust on wheat; details: disease control rating, foliar spray on wheat, 400 ppm (+++ at 100 ppm)

CC(=O)N(CCc1c(C)c(C)c(C)c(C)c1C)c1ccnc2c(F)cccc12 [Example 131, N-[2-(pentamethylphenyl)ethyl]-N-(8-fluoro-4-quinolinyl)acetamide]
GRAY MOLD [1]: - (0-19% control at 400 ppm)
mortality at 200 ppm [2]: 0%
mortality at 400 ppm [2]: 0%
mortality at 12 ppm [3]: 0%
mortality at 24 ppm [3]: 0%
mortality at 200 ppm [4]: 0%
mortality at 400 ppm [4]: 0%
RICE BLAST [5]: - (0-19% control at 400 ppm)
mortality at 200 ppm [6]: 0%
mortality at 400 ppm [6]: 0%
POWD MDEW [7]: - (0-19% control at 400 ppm)
DOWN MDEW [8]: + (20-89% control at 400 ppm)
LEAF RUST [9]: - (0-19% control at 400 ppm)

CC(=O)N(CCc1ccccc1Cl)c1ccnc2c(Cl)cccc12 [Example 132, N-[2-(2-chlorophenyl)ethyl]-N-(8-chloro-4-quinolinyl)acetamide]
GRAY MOLD [1]: - (0-19% control at 400 ppm)
mortality at 200 ppm [2]: 0%
mortality at 400 ppm [2]: 0%
mortality at 12 ppm [3]: 0%
mortality at 24 ppm [3]: 0%
mortality at 200 ppm [4]: 0%
mortality at 400 ppm [4]: 0%
RICE BLAST [5]: - (0-19% control at 400 ppm)
mortality at 200 ppm [6]: 0%
mortality at 400 ppm [6]: 0%
POWD MDEW [7]: - (0-19% control at 400 ppm)
DOWN MDEW [8]: - (0-19% control at 400 ppm)
LEAF RUST [9]: - (0-19% control at 400 ppm)

COc1ccc(CCNc2ccnc3c(C)c(C)ccc23)cc1 [Example 133, N-[2-(4-methoxyphenyl)ethyl]-7,8-dimethyl-4-quinolinamine]
GRAY MOLD [1]: - (0-19% control at 400 ppm)
mortality at 200 ppm [2]: 0%
mortality at 400 ppm [2]: 0%
mortality at 12 ppm [3]: 0%
mortality at 24 ppm [3]: 0%
mortality at 200 ppm [4]: 0%
mortality at 400 ppm [4]: 0%
RICE BLAST [5]: + (20-89% control at 400 ppm)
mortality at 200 ppm [6]: 0%
mortality at 400 ppm [6]: 0%
POWD MDEW [7]: - (0-19% control at 400 ppm)
DOWN MDEW [8]: + (20-89% control at 400 ppm)
LEAF RUST [9]: + (20-89% control at 400 ppm)

Clc1ccc2c(NCCCc3ccc(-c4ccccc4)cc3)ccnc2c1 [Example 134, 7-chloro-N-[3-(1,1'-biphenyl)-4-ylpropyl]-4-quinolinamine]
GRAY MOLD [1]: - (0-19% control at 400 ppm)
mortality at 400 ppm [2]: 0%
mortality at 24 ppm [3]: 0%
mortality at 400 ppm [4]: 0%
RICE BLAST [5]: ++ (90-100% control at 400 ppm)
mortality at 400 ppm [6]: 0%
POWD MDEW [7]: + (20-89% control at 400 ppm)
DOWN MDEW [8]: +++ (90-100% control at 100 ppm)
LEAF RUST [9]: + (20-89% control at 400 ppm)

Fc1cccc2c(NCCCc3ccc(-c4ccccc4)cc3)ccnc12 [Example 137, N-[3-(1,1'-biphenyl)-4-ylpropyl]-8-fluoro-4-quinolinamine]
GRAY MOLD [1]: - (0-19% control at 400 ppm)
mortality at 400 ppm [2]: 80%
activity as miticides ([2]; summary statement in the description): particularly excellent activity
mortality at 24 ppm [3]: 0%
mortality at 400 ppm [4]: 80%
RICE BLAST [5]: +++ (90-100% control at 100 ppm)
mortality at 400 ppm [6]: 100%
POWD MDEW [7]: + (20-89% control at 400 ppm)
DOWN MDEW [8]: +++ (90-100% control at 100 ppm)
LEAF RUST [9]: + (20-89% control at 400 ppm)

CC(CCc1ccccc1)Nc1ccnc2c(F)cccc12 (stereo not drawn) [Example 138, 8-fluoro-N-(1-methyl-3-phenylpropyl)-4-quinolinamine]
GRAY MOLD [1]: - (0-19% control at 400 ppm)
mortality at 400 ppm [2]: 0%
mortality at 24 ppm [3]: 0%
mortality at 400 ppm [4]: 0%
RICE BLAST [5]: + (20-89% control at 400 ppm)
mortality at 400 ppm [6]: 0%
POWD MDEW [7]: - (0-19% control at 400 ppm)
DOWN MDEW [8]: +++ (90-100% control at 100 ppm)
LEAF RUST [9]: + (20-89% control at 400 ppm)

CC(=O)N(CCCCc1ccc(Cl)cc1)c1ccnc2c(F)cccc12 [Example 141, N-[4-(4-chlorophenyl)butyl]-N-(8-fluoro-4-quinolinyl)acetamide]
GRAY MOLD [1]: - (0-19% control at 400 ppm)
mortality at 200 ppm [2]: 0%
mortality at 400 ppm [2]: 0%
mortality at 12 ppm [3]: 0%
mortality at 24 ppm [3]: 0%
mortality at 200 ppm [4]: 0%
mortality at 400 ppm [4]: 0%
RICE BLAST [5]: ++ (90-100% control at 400 ppm)
mortality at 200 ppm [6]: 0%
mortality at 400 ppm [6]: 0%
POWD MDEW [7]: - (0-19% control at 400 ppm)
DOWN MDEW [8]: + (20-89% control at 400 ppm)
LEAF RUST [9]: + (20-89% control at 400 ppm)

Cc1ccc(C)c2c(NCCC3=CCCCC3)ccnc12 [Example 142, N-[2-(1-cyclohexenyl)ethyl]-5,8-dimethyl-4-quinolinamine]
GRAY MOLD [1]: - (0-19% control at 400 ppm)
mortality at 200 ppm [2]: 0%
mortality at 400 ppm [2]: 0%
mortality at 12 ppm [3]: 0%
mortality at 24 ppm [3]: 0%
mortality at 200 ppm [4]: 0%
mortality at 400 ppm [4]: 0%
RICE BLAST [5]: ++ (90-100% control at 400 ppm)
mortality at 200 ppm [6]: 0%
mortality at 400 ppm [6]: 0%
POWD MDEW [7]: - (0-19% control at 400 ppm)
DOWN MDEW [8]: +++ (90-100% control at 100 ppm)
LEAF RUST [9]: ++ (90-100% control at 400 ppm)

CC(=O)N(CCC1=CCCCC1)c1ccnc2ccc(F)cc12 [Example 146, N-[2-(1-cyclohexenyl)ethyl]-N-(6-fluoro-4-quinolinyl)acetamide]
GRAY MOLD [1]: - (0-19% control at 400 ppm)
mortality at 200 ppm [2]: 0%
mortality at 400 ppm [2]: 0%
mortality at 12 ppm [3]: 0%
mortality at 24 ppm [3]: 0%
mortality at 200 ppm [4]: 0%
mortality at 400 ppm [4]: 0%
RICE BLAST [5]: - (0-19% control at 400 ppm)
mortality at 200 ppm [6]: 0%
mortality at 400 ppm [6]: 0%
POWD MDEW [7]: - (0-19% control at 400 ppm)
DOWN MDEW [8]: + (20-89% control at 400 ppm)
LEAF RUST [9]: - (0-19% control at 400 ppm)

OC(CNc1ccnc2c(F)cccc12)c1ccc2ccccc2c1 (stereo not drawn) [Example 157, α-[[(8-fluoro-4-quinolinyl)amino]methyl]-2-naphthalenemethanol]
GRAY MOLD [1]: - (0-19% control at 400 ppm)
mortality at 400 ppm [2]: 80%
mortality at 24 ppm [3]: 0%
mortality at 400 ppm [4]: 0%
RICE BLAST [5]: ++ (90-100% control at 400 ppm)
mortality at 400 ppm [6]: 100%
POWD MDEW [7]: - (0-19% control at 400 ppm)
DOWN MDEW [8]: +++ (90-100% control at 100 ppm)
LEAF RUST [9]: ++ (90-100% control at 400 ppm)

CC(=O)N(CCC1=CCCCC1)c1ccnc2c(C)ccc(C)c12 [Example 160, N-[2-(1-cyclohexenyl)ethyl]-N-(5,8-dimethyl-4-quinolinyl)acetamide]
GRAY MOLD [1]: - (0-19% control at 400 ppm)
mortality at 200 ppm [2]: 0%
mortality at 400 ppm [2]: 0%
mortality at 12 ppm [3]: 0%
mortality at 24 ppm [3]: 0%
mortality at 200 ppm [4]: 0%
mortality at 400 ppm [4]: 0%
RICE BLAST [5]: + (20-89% control at 400 ppm)
mortality at 200 ppm [6]: 0%
mortality at 400 ppm [6]: 0%
POWD MDEW [7]: - (0-19% control at 400 ppm)
DOWN MDEW [8]: - (0-19% control at 400 ppm)
LEAF RUST [9]: - (0-19% control at 400 ppm)

CC(=O)N(CCC1CCCCC1)c1ccnc2c(F)cccc12 [Example 161, N-(2-cyclohexylethyl)-N-(8-fluoro-4-quinolinyl)acetamide]
GRAY MOLD [1]: - (0-19% control at 400 ppm)
mortality at 200 ppm [2]: 0%
mortality at 400 ppm [2]: 0%
mortality at 12 ppm [3]: 0%
mortality at 24 ppm [3]: 40%
mortality at 200 ppm [4]: 0%
mortality at 400 ppm [4]: 80%
RICE BLAST [5]: + (20-89% control at 400 ppm)
mortality at 200 ppm [6]: 0%
mortality at 400 ppm [6]: 0%
POWD MDEW [7]: + (20-89% control at 400 ppm)
DOWN MDEW [8]: + (20-89% control at 400 ppm)
LEAF RUST [9]: - (0-19% control at 400 ppm)
